According to paper PMC10600239, “Selective MCL-1 inhibitor ABBV-467 is efficacious in tumor models but is associated with cardiac troponin increases in patients” (Communications Medicine, 2023):
Where “and” joins values, the source holds several entries; their conditions need not be identical. Equal values may be shown once.

Test system: troponin
Test: Troponin monitoring in phase 1 patients
Format: in vivo, human
Conditions: for Troponin I, Local Lab: reference range 2.3 to 20 ng/L; for Troponin T: patient, normal range 0-0.014
Procedure: Blood samples for plasma ABBV-467 concentration analysis were collected on days 1, 2, 3, and 15–17 of cycle 1 as well as on days 1 of cycles for PK analysis. Plasma samples of ABBV-467 were quantified using a validated LC-tandem MS with a lower limit of detection of 3 ng/mL. ABBV-467 PK parameters were calculated using standard non-compartmental approaches with Phoenix, WinNonlin (Version 8.0, Certara). AE severity was graded according to the National Cancer Institute Common Terminology Criteria for Adverse Events v5.0 for up to 30 days after the last dose. Analyses of AEs will include only treatment-emergent AEs. Triplicate ECGs were performed on days 1, 2, 15, and 16 of cycle 1. […] An echocardiogram was performed at screening and day 1 of cycle 2 and cycle 6. […]
Creatine Phosphokinase and Troponin Enzymes
Blood samples will be collected on the days specified in Section 2 for analysis of creatine phosphokinase and troponin serum concentrations. Clinical significance of these enzymes will be evaluated within the […]
context of the study. Samples should also be obtained as clinically indicated in the opinion of the investigator.
Table 9. Creatine Phosphokinase and Troponin Sampling Times […]
4, 8, 24, and 48 hours post-EOI
4, 8, 24 and 48 hours post-EOI
Sample times are relative to ABBV-467 infusion. […]

[1] = of the 4 patients with elevations

Cc1c(Cl)c2c(Cl)c(C)c1-c1c(-c3ccc(F)cc3)sc3ncnc(c13)O[C@@H](C(=O)O)Cc1cc(ccc1OCc1ccnc(-c3ccc(OC[C@H]4COCCO4)cc3)n1)OC[C@@H](CN1CCN(C)CC1)O2 [ABBV-467]
Troponin I, Central Laboratory (Patient 1, C1D1, study day 1, reference range ≤ 0.04 ng/mL, Advia Centaur TnI-Ultra Assay): <0.03 ng/mL
Troponin I, Central Laboratory (Patient 1, C1D2, study day 2, reference range ≤ 0.04 ng/mL): <0.03 ng/mL
Troponin I, Central Laboratory (Patient 1, C1D15, study day 15, reference range ≤ 0.04 ng/mL): <0.03 ng/mL
Troponin I, Central Laboratory (Patient 1, C1D16, study day 16, reference range ≤ 0.04 ng/mL): <0.03 ng/mL
Troponin I, Central Laboratory (Patient 1, C1D17, study day 17, reference range ≤ 0.04 ng/mL): <0.03 ng/mL
Troponin I, Central Lab (Patient 2, C1D1, study day 1, reference range ≤0.04 ng/mL): <0.03 ng/mL
Troponin I, Central Lab (Patient 2, C1D2, study day 2, reference range ≤0.04 ng/mL): <0.03 ng/mL
Troponin I, Central Lab (Patient 2, C1D3, study day 3, reference range ≤0.04 ng/mL): <0.03 ng/mL
Troponin I, Central Lab (Patient 2, C1D8, study day 8, reference range ≤0.04 ng/mL): <0.03 ng/mL
Troponin I, Central Lab (Patient 2, C1D16, study day 16, 4 hr postdose, reference range ≤0.04 ng/mL): 0.24 (4 hr postdose) ng/ml
Troponin I, Central Lab (Patient 2, C1D16, study day 16, 8 hr postdose, reference range ≤0.04 ng/mL): <0.03 (8 hr postdose) ng/ml
Troponin I, Central Lab (Patient 2, C1D17, study day 17, reference range ≤0.04 ng/mL): 0.15 ng/mL
Troponin I, Central Lab (Patient 2, C1D18, study day 18, reference range ≤0.04 ng/mL): 0.08 ng/mL
Troponin I, Local Lab (Patient 3, C1D1, study day 1, Beckman Coulter ACCESS high sensitivity Troponin I assay): 8.1 ng/L
Troponin I, Central Lab (Patient 3, C1D1, study day 1, reference range ≤ 0.04 ng/mL): <0.03 ng/mL
Troponin I, Local Lab (Patient 3, C1D2, study day 2): 7.3 ng/L
Troponin I, Central Lab (Patient 3, C1D2, study day 2, reference range ≤ 0.04 ng/mL): <0.03 ng/mL
Troponin I, Local Lab (Patient 3, C1D3, study day 3): 10.2 ng/L
Troponin I, Central Lab (Patient 3, C1D3, study day 3, reference range ≤ 0.04 ng/mL): <0.03 ng/mL
Troponin I, Local Lab (Patient 3, C1D4, study day 4): 7.4 ng/L
Troponin I, Local Lab (Patient 3, C1D5, study day 5): 7.3 ng/L
Troponin I, Local Lab (Patient 3, C1D9, study day 9): 7.8 ng/L
Troponin I, Local Lab (Patient 3, C1D11, study day 11): 37.7 ng/L
Troponin I, Local Lab (Patient 3, C1D12, study day 12): 27.2 ng/L
Troponin I, Central Lab (Patient 3, C1D12, study day 12, reference range ≤ 0.04 ng/mL): 0.05 ng/mL
Troponin I, Local Lab (Patient 3, C1D15 (No infusion; drug discontinued), study day 15): 16.5 ng/L
Troponin I, Central Lab (Patient 4, C1D1, study day 1, 4hr postdose, reference range ≤ 0.04 ng/mL): <0.03 (4hr postdose) ng/ml
Troponin I, Central Lab (Patient 4, C1D1, study day 1, 8hr postdose, reference range ≤ 0.04 ng/mL): <0.03 (8hr postdose) ng/ml
Troponin I, Central Lab (Patient 4, C1D1, study day 1, predose, reference range ≤ 0.04 ng/mL): <0.03 (predose) ng/ml
Troponin I, Central Lab (Patient 4, C1D2, study day 2, reference range ≤ 0.04 ng/mL): <0.03 ng/mL
Troponin I, Central Lab (Patient 4, C1D3, study day 3, reference range ≤ 0.04 ng/mL): <0.03 ng/mL
Troponin I, Central Lab (Patient 4, C1D15, study day 15, 4 hr postdose, reference range ≤ 0.04 ng/mL): 0.06 (4 hr postdose) ng/ml
Troponin I, Central Lab (Patient 4, C1D15, study day 15, 8 hr postdose, reference range ≤ 0.04 ng/mL): 0.04 ( 8 hr postdose) ng/ml
Troponin I, Central Lab (Patient 4, C1D15, study day 15, predose, reference range ≤ 0.04 ng/mL): 0.04 (predose) ng/ml
Troponin I, Central Lab (Patient 4, C1D16, study day 16, reference range ≤ 0.04 ng/mL): 0.04 ng/mL
Troponin I, Central Lab (Patient 4, C1D17, study day 17, reference range ≤ 0.04 ng/mL): 0.05 ng/mL
Troponin I, Central Lab (Patient 4, C2D1, study day 29, postdose, reference range ≤ 0.04 ng/mL): <0.03 (postdose) ng/ml
Troponin I, Central Laboratory (Patient 5, C1D1 4hr Post EOI, study day 1, reference range ≤0.04 ng/mL): <0.03 ng/mL
Troponin I, Central Laboratory (Patient 5, C1D1 8hr post EOI, study day 1, reference range ≤0.04 ng/mL): <0.03 ng/mL
Troponin I, Central Laboratory (Patient 5, C1D1 Predose, study day 1, reference range ≤0.04 ng/mL): <0.03 ng/mL
Troponin I, Central Laboratory (Patient 5, C1D2 24h post EOI, study day 2, reference range ≤0.04 ng/mL): <0.03 ng/mL
Troponin I, Central Laboratory (Patient 5, C1D3 48hr Post EOI, study day 3, reference range ≤0.04 ng/mL): <0.03 ng/mL
Troponin I, Central Laboratory (Patient 5, C1D15 4hr Post EOI, study day 15, reference range ≤0.04 ng/mL): <0.03 ng/mL
Troponin I, Central Laboratory (Patient 5, C1D15 8h post EOI, study day 15, reference range ≤0.04 ng/mL): <0.03 ng/mL
Troponin I, Central Laboratory (Patient 5, C1D15 Predose, study day 15, reference range ≤0.04 ng/mL): <0.03 ng/mL
Troponin I, Central Laboratory (Patient 5, C1D16 24h post EOI, study day 16, reference range ≤0.04 ng/mL): <0.03 ng/mL
Troponin I, Central Laboratory (Patient 5, C1D17 48hr Post EOI, study day 17, reference range ≤0.04 ng/mL): <0.03 ng/mL
Troponin I, Central Laboratory (Patient 6, C1D1 4hr Post EOI, study day 1, reference range ≤0.04 ng/mL): <0.03 ng/mL
Troponin I, Central Laboratory (Patient 6, C1D1 8hr post EOI, study day 1, reference range ≤0.04 ng/mL): <0.03 ng/mL
Troponin I, Central Laboratory (Patient 6, C1D1 Predose, study day 1, reference range ≤0.04 ng/mL): <0.03 ng/mL
Troponin I, Central Laboratory (Patient 6, C1D2 24h post EOI, study day 2, reference range ≤0.04 ng/mL): <0.03 ng/mL
Troponin I, Central Laboratory (Patient 6, C1D3 48hr Post EOI, study day 3, reference range ≤0.04 ng/mL): <0.03 ng/mL
Troponin I, Central Laboratory (Patient 6, C1D15 4hr Post EOI, study day 15, reference range ≤0.04 ng/mL): <0.03 ng/mL
Troponin I, Central Laboratory (Patient 6, C1D15 8h post EOI, study day 15, reference range ≤0.04 ng/mL): <0.03 ng/mL
Troponin I, Central Laboratory (Patient 6, C1D15 Predose, study day 15, reference range ≤0.04 ng/mL): <0.03 ng/mL
Troponin I, Central Laboratory (Patient 6, C1D16 24h post EOI, study day 16, reference range ≤0.04 ng/mL): <0.03 ng/mL
Troponin I, Central Laboratory (Patient 6, C1D17 48hr Post EOI, study day 17, reference range ≤0.04 ng/mL): <0.03 ng/mL
Troponin I, Central Laboratory (Patient 7, C1D1 4hr Post EOI, study day 1, reference range ≤0.04 ng/mL): <0.03 ng/mL
Troponin I, Central Laboratory (Patient 7, C1D1 8hr post EOI, study day 1, reference range ≤0.04 ng/mL): <0.03 ng/mL
Troponin I, Central Laboratory (Patient 7, C1D1 Predose, study day 1, reference range ≤0.04 ng/mL): <0.03 ng/mL
Troponin I, Central Laboratory (Patient 7, C1D2 24h post EOI, study day 2, reference range ≤0.04 ng/mL): <0.03 ng/mL
Troponin I, Central Laboratory (Patient 7, C1D3 48hr Post EOI, study day 3, reference range ≤0.04 ng/mL): <0.03 ng/mL
Troponin I, Central Laboratory (Patient 7, C1D15 4hr Post EOI, study day 15, reference range ≤0.04 ng/mL): <0.03 ng/mL
Troponin I, Central Laboratory (Patient 7, C1D15 8h post EOI, study day 15, reference range ≤0.04 ng/mL): <0.03 ng/mL
Troponin I, Central Laboratory (Patient 7, C1D15 Predose, study day 15, reference range ≤0.04 ng/mL): <0.03 ng/mL
Troponin I, Central Laboratory (Patient 7, C1D16 24h post EOI, study day 16, reference range ≤0.04 ng/mL): <0.03 ng/mL
Troponin I, Central Laboratory (Patient 7, C1D17 48hr Post EOI, study day 17, reference range ≤0.04 ng/mL): <0.03 ng/mL
Troponin I, Central Laboratory (Patient 8, C1D1 4hr Post EOI, study day 1, reference range ≤0.04 ng/mL): <0.03 ng/mL
Troponin I, Central Laboratory (Patient 8, C1D1 8hr post EOI, study day 1, reference range ≤0.04 ng/mL): <0.03 ng/mL
Troponin I, Central Laboratory (Patient 8, C1D1 Predose, study day 1, reference range ≤0.04 ng/mL): <0.03 ng/mL
Troponin I, Central Laboratory (Patient 8, C1D2 24h post EOI, study day 2, reference range ≤0.04 ng/mL): <0.03 ng/mL
Troponin I, Central Laboratory (Patient 8, C1D3 48hr Post EOI, study day 3, reference range ≤0.04 ng/mL): <0.03 ng/mL
Troponin I, Central Laboratory (Patient 8, C1D15 4hr Post EOI, study day 15, reference range ≤0.04 ng/mL): <0.03 ng/mL
Troponin I, Central Laboratory (Patient 8, C1D15 8h post EOI, study day 15, reference range ≤0.04 ng/mL): <0.03 ng/mL
Troponin I, Central Laboratory (Patient 8, C1D15 Predose, study day 15, reference range ≤0.04 ng/mL): <0.03 ng/mL
Troponin I, Central Laboratory (Patient 8, C1D16 24h post EOI, study day 16, reference range ≤0.04 ng/mL): <0.03 ng/mL
Troponin I, Central Laboratory (Patient 8, C1D17 48hr Post EOI, study day 17, reference range ≤0.04 ng/mL): 0.03 ng/mL
relation of grade ≥1 elevated troponin to peak plasma concentration and AUC (across the studied dose range): unrelated
patients with troponin elevations (all doses, N = 8): 4 (50%) patients (%)
patients with troponin elevations (dose 0.32 mg/kg): 1 (12.5%) patients (%)
first blood draw post-infusion at which troponin elevations were detectable (human, in vivo): 4 h
patients with grade 1 troponin elevation [1]: 3 (75%) patients (%)
patients with grade 3 troponin elevation [1]: 1 (25%) patients (%)
Troponin T (LBDY 1): 0.011 µg/L
Troponin T (LBDY 9): 0.021 µg/L
Troponin T (LBDY 11): 0.038 µg/L
Troponin T (LBDY 12): 0.032 µg/L
Troponin T (LBDY 15): 0.018 µg/L and 0.019 µg/L
Troponin T (LBDY 16): 0.021 µg/L
Troponin T (LBDY 17): 0.024 µg/L
Troponin T (LBDY 18): 0.027 µg/L
Troponin T (LBDY 19): 0.025 µg/L
Troponin T (LBDY 22): 0.015 µg/L
Troponin T (LBDY 23): 0.019 µg/L
Troponin T (LBDY 25): 0.024 µg/L
Troponin T (LBDY 26): 0.019 µg/L
Troponin T (LBDY 30 (Note: 29)): 0.021 µg/L
Troponin T (LBDY 36 (Note: missing)): 0.018 µg/L
Troponin T (LBDY 61 (Note: missing)): 0.016 µg/L
troponin I, grade 3 elevation, multiple of upper limit of normal (single patient): 1.9 × upper limit of normal
